Measured values reported in patent US20220218614A1, “IONIZABLE CATIONIC LIPIDS AND LIPID NANOPARTICLES, AND METHODS OF SYNTHESIS AND USE THEREOF” (Tidal Therapeutics, Inc., priority 2020, published 2022).
“And” between values parts separate entries of the source, which are not always exact repeats. Equal entries are not always repeated. “Also recorded” adds a separate entry of the source.

Experiments:
[1] = Hydrodynamic diameter and polydispersity of LNPs by dynamic light scattering (DLS), Zetasizer; format: physicochemical
Method: (§1) Samples of the LNPs produced in Example 2 were characterized to determine the average hydrodynamic diameter, zeta potential, and mRNA content (total and dye-accessible). The hydrodynamic diameter was determined by dynamic light scattering (DLS) using a Zetasizer model ZEN3600 (Malvern Pananalytical, UK). The zeta potential was measured in 5 mM pH 5.5 MES buffer and 5 mM pH 7.4 HEPES buffer by laser Doppler electrophoresis using the Zetasizer.

[2] = Zeta potential of LNPs by laser Doppler electrophoresis in 5 mM pH 5.5 MES and 5 mM pH 7.4 HEPES buffer; format: physicochemical; settings: pH 5.5 MES and pH 7.4 HEPES buffer
Method: as §1

[3] = Quant-iT RiboGreen RNA assay: dye accessible and total (Triton) mRNA content, encapsulation; format: physicochemical
Method: RNA content of the nanoparticles is measured using Thermo Fisher Quant-iT RiboGreen RNA Assay Kit. Dye accessible RNA, which includes both non-incorporated RNA and RNA that is near the surface of the nanoparticle, is measured by diluting the nanoparticles to approximately 1 μg/mL mRNA using HEPES buffered saline, and then adding Quant-iT reagent to the mixture. Total RNA content is measured by diluting the particles to 1 μg/mL mRNA using HEPES buffered saline, disrupting the nanoparticles by heating them to 60° C. for 30 minutes in HEPES buffered saline containing 0.5% Triton, and then adding Quant-It reagent. RNA is quantified by measuring fluorescence at 485/535 nm, and concentration is determined relative to a contemporaneously run RNA standard curve.

[4] = system: primary human T-cells (CD3+ T cells); test: In vitro LNP transfection of primary human T-cells (GFP, Cy5 or DiI, viability by FACS); format: cell-based; settings: for GFP protein expression (% GFP+ cells, GFP MFI), in words: hSP34 targeted LNP with GFP mRNA; for GFP protein expression (% GFP+ cells, GFP MFI), in words / T-cell viability / tolerability, in words / LNP association with cells (% Cy5+/Cy5 MFI or % DiI+/DiI MFI), in words: 24 hours; for T-cell viability / tolerability, in words / LNP association with cells (% Cy5+/Cy5 MFI or % DiI+/DiI MFI), in words: hSP34 targeted LNP; for T-cell viability / tolerability, in words: dose as in the value; for T-cell viability (% live): PBS control about 50%
Excerpt: This example describes the protocol used for in vitro LNP transfections in primary human T-cells. This method is used to assess LNP in vitro efficacy in relevant target cells (CD3+ T cells) by first transfecting the cells using LNPs loaded with mRNA encoding for a reporter gene, such as GFP mRNA, and then assessing transfection by measuring reporter gene expression by fluorescence-[…] cell sorting (FACS). Additionally, particle association with cells may be observed by in the same assay by labeling individual nanoparticle components, such as the mRNA, with a fluorescent dye, such as Cy5, and then observing cell/dye association by FACS.
CD3+ T cells were isolated from frozen peripheral blood mononuclear cells using an EasySep Human T Cell Isolation Kit on a RoboSep automated cell isolation system from […]. T cells were plated into a flat bottom 96-well plate in RPMI cell culture media supplemented with glutamax, 10% fetal bovine serum, and 40 ng/mL IL2. 100 μL of cell suspension was seeded per well at a density of 1M T cells/mL (100K T cells/well). Cells were allowed to rest for two hours in a 37° C. incubator, and then were transfected by gently adding 10 μL of a 22 μg/mL (by mRNA) nanoparticle suspension, resulting in a final mRNA concentration of 2 μg/mL. Cells were gently mixed with a pipette and then incubated for 24 hours in a 37° C. incubator. After incubation the cells were analyzed using an ThermoFisher Attune NXT flow cytometer. Cy5 was detected using a 638 nm laser with 670/14 nm filter. eGFP was detected using a 488 nm laser and a 530/30 nm filter. Data were analyzed using FlowJo software from BD biosciences. FACS data were first gated to exclude doublets and dead cells and then gated for GFP and Cy5. Gates for GFP+ and Cy5+were set such that a control sample (PBS treated T cells) was <0.1% positive.
CD3+ T cells were isolated from frozen peripheral blood mononuclear cells using an EasySep Human T Cell Isolation Kit on a RoboSep automated cell isolation system from […]. T cells were plated into a round bottom 96-well plate in RPMI cell culture media supplemented with glutamax, 10% fetal bovine serum, pen-strep, and 40 ng/mL IL-2. 100 μL of cell suspension was seeded per well at a density of 1M T cells/mL (100K T cells/well). Cells were allowed to rest for two hours in a 37° C. incubator, and then were transfected by gently adding 10 μL of a 22 μg/mL (by mRNA) nanoparticle suspension, resulting in a final mRNA concentration of 2 μg/mL (unless otherwise noted). Cells were gently mixed with a pipette and then incubated for 24 hours in a 37° C. incubator. After incubation the cells were diluted with FACS buffer (BD 554657) and analyzed using a BD Fortessa flow cytometer. Data were analyzed using FlowJo software from BD biosciences.

[5] = Apparent pKa of LNPs by TNS fluorescent probe; format: physicochemical; settings: LNP made with the named ionizable lipid; pH at 50% of maximum TNS fluorescence
Excerpt: This example describes the fluorescent dye based method used for measurement of the apparent pKa of the lipid nanoparticles. Apparent pKa determines the nanoparticle surface charge under physiological pH conditions, typically a pKa value in the endosomal pH range (6-7.4) results in LNPs that are neutral or slightly charged at plasma or the extracellular space (pH 7.4) and become strongly positive under acidic endosomal environments. This positive surface charge drives fusion of the LNP surface with negatively charged endosomal membranes resulting in destabilization and rupture of the endosomal compartment and LNP escape into the cytosolic compartment, a critical step in cytosolic delivery of mRNA and protein expression via engagement of the cells ribosomal machinery.
The apparent pKa of LNPs made using ionizable Lipids 2, 5 (synthesized as described in example 1), 6 and 7 (synthesized using method analogous to Lipid 2, 5, respectively, except using diethyl amine instead of dimethyl amine to incorporate the tertiary amine head group) were determined by 6-(p-Toluidino)-2-naphthalenesulfonic acid (TNS) fluorescence measurement in aqueous buffers covering a range of pH values (pH 4-pH 10). TNS is non-fluorescent when free in solution, but which fluoresces strongly when associated with a positively charged lipid nanoparticle. At a pH values below the pKa of the nanoparticle, positive LNP surface charge results in dye recruitment at the particle interface resulting in TNS fluorescence. At pH values above the LNP pKa no fluorescence is observed. The apparent pKa of the LNP is reported as the pH at which the fluorescence is at 50% of its maximum, as determined using a four-point logistic curve fit.

[6] = Table 11A: Lipid 5, Lipid 8 and DLn-MC3-DMA LNP, vortexer mixing, theoretical total mRNA 42.5 ug/mL
[7] = Table 11A: vortexer mixing, theoretical total mRNA 42.5 ug/mL
[8] = Table 25: Lipid 8 and Lipid 5 LNP, theoretical total mRNA 45 ug/mL
[9] = Table 10: Lipid 5 and Lipid 7 LNP, theoretical total mRNA 50 μg/mL

SMILES | GFP protein expression (% GFP+ cells, GFP MFI), in words [4] | T-cell viability / tolerability, in words [4] | Measured total (Triton method) mRNA [3, 8] [µg/mL] | Ribogreen Dye Accessible mRNA [3, 8] [µg/mL] | other results
CCCCC/C=C\C/C=C\CCCCCCCCC(CCCCCCCC/C=C\C/C=C\CCCCC)OC(=O)CCCN(C)C [DLn-MC3-DMA, DLin-MC3-DMA, reference compound] | failed to express GFP protein | better tolerated at higher doses | – | – | polydispersity after antibody conjugate insertion [1]: 0.2; LNP surface charge (zeta potential), in words [2]: positive zeta potential at pH 5.5, and either near neutral or slightly negative charge at pH 7.4; Measured total (Triton method) mRNA [3, 6]: 33 µg/mL; Ribogreen Dye Accessible mRNA [3, 7]: 2 µg/mL
CCCCC/C=C\C/C=C\CCCCCCCC(=O)OC[C@H](COC(=O)CCCN(C)C)OC(=O)CCCCCCC/C=C\C/C=C\CCCCC [Lipid 2] | – | well tolerated by T-cells at all LNP doses tested | – | – | apparent pKa of LNP (TNS) [5]: 7.5
CCCCC/C=C\C/C=C\CCCCCCCC(=O)OC[C@H](CCN(C)C)OC(=O)CCCCCCC/C=C\C/C=C\CCCCC [Lipid 5 (N)] | – | – | 36 | 7 | –
CCCCC/C=C\C/C=C\CCCCCCCC(=O)OC[C@H](CCN(C)C)OC(=O)CCCCCCC/C=C\C/C=C\CCCCC [Lipid 5 (O)] | – | – | 38 | 7 | –
CCCCC/C=C\C/C=C\CCCCCCCC(=O)OCC(CCN(CC)CC)OC(=O)CCCCCCC/C=C\C/C=C\CCCCC (stereo not shown) [Lipid 7] | Dose dependent expression of GFP protein; also recorded: significantly lower level of GFP protein expression relative to Lipid 5 LNP formulation | well tolerated by T-cells at and below 0.5 μg/mL dose | – | – | % Dye Accessible mRNA ([3]; Table 10: Lipid 5 and Lipid 7 LNP): 14%; Measured total (Triton method) mRNA [3, 9]: 43 µg/mL; Ribogreen Dye Accessible mRNA [3, 9]: 6 µg/mL; apparent pKa of LNP (TNS) [5]: ~6.3 and ~6.4; LNP association with cells (% Cy5+/Cy5 MFI or % DiI+/DiI MFI), in words [4]: equally associated with cells
CCCCC/C=C\C/C=C\CCCCCCCCC1(CCCCCCCC/C=C\C/C=C\CCCCC)OCC(CCN(C)C)O1 (stereo not shown) [Lipid 8, reference compound] | Dose dependent expression of GFP protein | slightly lower viability at higher dose of 2 μg/mL; also recorded: dose dependent toxicity towards T-cells; also recorded: well tolerated by T-cells at and below 1.0 μg/mL dose | 40 | 4 | polydispersity after antibody conjugate insertion [1]: 0.2; LNP surface charge (zeta potential), in words [2]: positive zeta potential at pH 5.5, and either near neutral or slightly negative charge at pH 7.4; Measured total (Triton method) mRNA [3, 6]: 30 µg/mL; Ribogreen Dye Accessible mRNA [3, 7]: 3 µg/mL; T-cell viability (% live) ([4]; 0.125 ug mRNA/mL per well): about 45%; T-cell viability (% live) ([4]; 2 ug mRNA/mL per well): about 25%; LNP association with cells (% Cy5+/Cy5 MFI or % DiI+/DiI MFI), in words [4]: equally associated with cells
CCCCC/C=C\C/C=C\CCCCCCCC(=O)OC[C@H](COC(=O)CCN(C)CCO)OC(=O)CCCCCCC/C=C\C/C=C\CCCCC [Lipid 12] | performed poorly | well tolerated by T-cells at all LNP doses tested | – | – | –
CCCCC/C=C\C/C=C\CCCCCCCC(=O)OC[C@H](COC(=O)CCN(CCO)CCO)OC(=O)CCCCCCC/C=C\C/C=C\CCCCC [Lipid 13] | performed poorly | well tolerated by T-cells at all LNP doses tested | – | – | –
